From patent US9884846B2, “Crystalline salts of (S)-6-((1 acetylpiperidin-4-yl)amino)-N-(3-(3,4-dihydroisoquinolin-2(1H)-yl)-2-hydroxypropyl)pyrimidine-4-carboxamide” (GlaxoSmithKline Intellectual Property Development Limited, priority 2014, dated 2018)

Experiments:
[1] = Solid-state stability on storage (degradation; physical changes by XRPD); format: physicochemical; conditions: 40° C./75% RH open vessel, and 50° C./Ambient closed vessel
[2] = Photolysis at 1×ICH solid state; format: physicochemical

In the case of `CC(=O)N1CCC(Nc2cc(C(=O)NC[C@H](O)CN3CCc4ccccc4C3)ncn2)CC1.O=C(O)c1ccccc1` [Compound C, benzoate salt of (S)-6-((1-acetylpiperidin-4-yl)amino)-N-(3-(3,4-dihydroisoquinolin-2(1H)-yl)-2-hydroxypropyl)pyrimidine-4-carboxamide], the “physical changes by XRPD analysis” value ([1]; after 2 weeks at 25° C./60% RH open vessel) is reported as “No physical changes detected”, the degradation by photolysis [2] is reported as “Approximately 1.6%” and the “form change by XRPD after photolysis” value [2] is reported as “no form change observed”.

For `CC(=O)N1CCC(Nc2cc(C(=O)NC[C@H](O)CN3CCc4ccccc4C3)ncn2)CC1.O=C(O)CCC(=O)O` [Compound B, succinate salt of (S)-6-((1-acetylpiperidin-4-yl)amino)-N-(3-(3,4-dihydroisoquinolin-2(1H)-yl)-2-hydroxypropyl)pyrimidine-4-carboxamide], the degradation ([1]; after 4 weeks at 25° C./60% RH open vessel) was ≤ 0.4%, the “physical changes by XRPD analysis” value ([1]; after 6 weeks at 25° C./60% RH open vessel) was “No physical changes detected” and the degradation by photolysis [2] was “Approximately 1.4%”. The “form change by XRPD after photolysis” value [2] was “no form change observed”.
